Values after ≈ are worked out from the molar mass of the structure shown. Read-outs that look alike come from different tables or passages of the source. Each block holds one compound with its values, some of them ahead of it.
Experiments:
animal models of pain = conditions: carrageenan, CFA, CCI, SNL and acute mechanical pain models; cited from earlier work
[1] = test system: STZ-induced diabetic neuropathic heat pain model; conditions: cited from earlier work
hNav1.8 = hNav1.8 (Homo sapiens (Human), UniProt Q9Y5Y9); assay: Manual patch clamp, Method 1 (CHO cell line stably expressing hNav1.8); type: cell-based; conditions: 100 nM; Method 1, CHO-hNav1.8; read-out: Inhibition rate of hNav1.8
Description: The patch clamp technique is known as the “gold standard” for studying ion channels, and it uses glass microelectrodes to seal the cell membrane to measure the currents of various membrane channel. […] Patch clamp technology can evaluate the inhibition strength of different compounds on different states of Navs by measuring the changes of membrane channel currents after different compounds bind to different states of Navs.
The representative compounds of the present invention used stable CHO or HEK293 cell lines transfected with specific ion channels to measure the effect of the compounds on Nav1.8 currents by manual patch clamp test, to evaluate their inhibition strength.
The assay protocol of manual patch clamp is as follows:
CHO cell lines with stable expression of hNav1.8 were cultured in F12 medium containing 10% fetal bovine serum at a constant temperature of 37° C., and the carbon dioxide concentration was maintained at 5%. The old culture medium was removed and washed once with PBS, then 1 mL 0.25%-Trypsin-EDTA solution was added and incubated at 37° C. for 1 min. When the cells were detached from the bottom of the dish, 5 mL of the complete medium preheated at 37° C. was added, and the aggregated cells were separated by gently blowing with a straw. The cell suspension was transferred into a sterile centrifuge tube and centrifuged at 1000 rpm for 5 min to collect cells. The cells were then inoculated into a cell culture dish with a diameter of 6 cm (2.5×10^5 cells/petri dish, 5 mL medium) for expansion or maintenance.
In order to maintain the electrophysiological activity of the cells, the cell density must be less than 80%.
The cells were separated with 0.25%-Trypsin-EDTA before the assay, and 5×10^3 cells were seeded on a cover slip and cultured in a 24-well plate (final volume: 500 μL) for 18 h. Then the assay was conducted.
The compounds prepared in the examples of the present invention were dissolved in dimethyl sulfoxide (DMSO) and prepared into DMSO stock solution with a concentration of 10 mM for assay. And it was diluted to various concentrations with extracellular solution (140 mM NaCl, 3.5 mM KCl, 1 mM MgCl2, 2 mM CaCl2), 10 mM Glucose, 10 mM HEPES, 1.25 mM NaH2PO4, pH=7.4 regulated by NaOH), and the final concentration of DMSO in each compound sample was 0.10% or less.
A capillary glass pipette (BF150-86-10, Sutter Instruments) was pulled into a recording electrode with a micropipette puller (P97, Sutter Instruments). The micromanipulator (MP285, Sutter Instruments) was manipulated under an inverted microscope (IX71, Olympus) to make the recording electrode contact the cell and negative pressure suction was applied to achieve a GQ seal. Then, rapid capacitance compensation was performed, and negative pressure was continued, cell membrane was broken by suction, and whole cell recording mode was formed. Then the slow capacitance was compensated and the membrane capacitance and series resistance were recorded without leakage compensation. When the whole cell recording current was stabilized, dosing was initiated, and the next concentration was detected after acting 5 minutes of each drug concentration. Multiple cells were independently repeated during the recording period. All electrophysiological assays were performed at room temperature. Specifically, 6 concentrations (measuring IC50) or 2 concentrations (preliminary screening) were set for each compound, and the percentage of inhibition of sodium channels was determined by calculating the relative percentage of peak current generated before and after each concentration compound treated cells, and the IC50 value or percentage of inhibition at a specific concentration was calculated using IGOR pro software.

[2] = Assay of kinetic solubility; type: physicochemical; conditions: aqueous buffer, kinetic from dmso stock, pH 3.5 phosphate buffer, 25° C.
Experimental: The stock solutions of the test compound and the standard progesterone were prepared in DMSO at the concentration of 10 mM.
30 μL of stock solutions at 10 mM of the test compounds and standard substance were placed in order into their proper 96-well plate. 970 μL phosphate buffer at the specified pH was added to the proper vial of the sample plate. The assay was performed in duplicate. A stirring stick was added to each vial and the teflon/silicone plug was capped. The sample tray was then placed in the Eppendorf Thermomixer Comfort and shaken at 1100 RPM at 25° C. for 2 hours. After 2 hours, plugs were removed, a big magnet was used to remove the stirring sticks, and samples were transferred from the sample plate to the filter plate. Vacuum pump was used to create negative pressure and filtered the samples. Transferred 5 μL of the filtrate to the new sample plate, then added 5 μL DMSO and 490 μL water/acetonitrile (V/V=1/1) to dilute the solvent. The dilution factor may be adjusted according to the solubility values of the substances to be tested or the strength of its LC-MS signal response.
From the 10 mM DMSO stock solution, 15 μL of that was transferred into the empty plate and 485 μL DMSO was added to prepare a 300 μM standard solution. From the 300 μM standard solution plate, 5 μL of that was transferred to another empty plate and 5 μL phosphate buffer at specified pH and 490 μL water/acetonitrile (V/V=1/1) dilution solvent were added to the standard solution to get a final concentration of 3 μM. The concentration of the standard solution may be adjusted according to the strength of its LC-MS signal response.
The sample plate was placed into the sample tray of the automatic sampler and the samples were evaluated by LC-MS/MS analysis.
All calculations were carried out by Microsoft Excel.
The sample filtrate was analyzed and quantified against a standard of known concentrations using LC-MS spectral peaks to identify and quantify. The solubility values of the control drug and the compounds to be tested were calculated as the following formula: • [Sample]: concentration of the sample • AREASample: peak area of the sample • INJ VOLStd: standard sample injection volume • DFSample: sample dilution factor • [STD]: standard substance concentration • AREAStd: peak area of standard substance • INJ VOLSample: sample injection volume

[3] = test system: postoperative pain model in rats; assay: Efficacy test in postoperative pain model in rats (mechanical allodynia, PWT); type: in vivo, Sprague-Dawley male rats; conditions: single oral 30 mg/kg, at 2 h and 4 h after administration
Experimental: Sprague-Dawley male rats, purchased from Zhejiang Vital River Laboratory Animal Technology Co., LTD
Compounds of the example 10, 14, 16, 31 of the invention were weighted and prepared into solutions of 3 mg/mL using 5% DMSO (Anhui Senrise Technologies Co., Ltd)+30% Solutol HS15 (Beijing Ouhe Technology Co., LTD.)+65% water for injection, and administered at a volume of 10 mL/kg by gavage. The dosage was 30 mg/kg.
Animals were anesthetized with Zoletil 50+ Xylazine Hydrochloride (20 mg/kg+8 mg/kg, intraperitoneally injected). The surgical area on the plantar skin of the left hind paw was disinfected three times with iodophor and 70% ethanol, and the surgery was started after the skin was dry.
A longitudinal incision about 1 cm was made towards the toes starting from 0.5 cm away from the heel of the left hind paw. After the skin was incised, the flexor digitorum brevis was raised and longitudinal blunt injury was caused. After hemostasis by pressing, the wound was sutured. After surgery, animals were placed on an electric warm pad and 5 mL of physiological saline was injected subcutaneously to prevent dehydration. 24 h after modeling, all animals (including the normal control group) were tested for base mechanical allodynia (PWT). The modeling animals without mechanical hypersensitivity (PWT greater than 5 g) were excluded and […] were selected and randomly divided into 5 groups, with 9 animals in each group except 5 in the normal group (negative control group).
The animals were weighed and administered orally at a volume of 10 mL/kg. Except normal control animals, other animals were given a single dose of compounds, and mechanical allodynia was performed by test fibers on all groups of animals at 1 h, 2 h and 4 h after dosing. The rats were placed individually in a plexiglass box with a grid at the bottom to ensure that the paws of the rats could be tested. The rats would acclimate for 15 minutes before the test. After the acclimation was completed, the test fibers were used to test on the plantar center of the rat's left hind paw. Pressed the test fiber vertically against the skin and applied force to bend the fiber for 6 to 8 seconds, with 5 second intervals between each test. The rapid withdrawal of the animal's paws during the test was recorded as a pain response. The animal's paw withdrawal when the fibers left the animal's skin was also recorded as a pain response. If the animal moves or walks around, it's not recorded as a pain response, and the test should be repeated.
Mechanical hyperalgesia was expressed as the paw withdrawal threshold (PWT) in the rat behavioral test, which was calculated according to the following formula:
50% response threshold (g)=(10^(Xf+kδ)/10,000 • Xf=final test fiber value used in the test • k=table value (Chaplan et al. 1994, page 62) • δ=mean deviation
Data were collected with excel software and analyzed with Prism 7.0 (Graph pad software, Inc.) software by two-way ANOVA followed by Dunnett multiple comparison test.

postoperative toothache = conditions: phase II; cited from earlier work
CFA and SNL models = conditions: cited from earlier work

Sequence of hNav1.8 (Q9Y5Y9 whole entry): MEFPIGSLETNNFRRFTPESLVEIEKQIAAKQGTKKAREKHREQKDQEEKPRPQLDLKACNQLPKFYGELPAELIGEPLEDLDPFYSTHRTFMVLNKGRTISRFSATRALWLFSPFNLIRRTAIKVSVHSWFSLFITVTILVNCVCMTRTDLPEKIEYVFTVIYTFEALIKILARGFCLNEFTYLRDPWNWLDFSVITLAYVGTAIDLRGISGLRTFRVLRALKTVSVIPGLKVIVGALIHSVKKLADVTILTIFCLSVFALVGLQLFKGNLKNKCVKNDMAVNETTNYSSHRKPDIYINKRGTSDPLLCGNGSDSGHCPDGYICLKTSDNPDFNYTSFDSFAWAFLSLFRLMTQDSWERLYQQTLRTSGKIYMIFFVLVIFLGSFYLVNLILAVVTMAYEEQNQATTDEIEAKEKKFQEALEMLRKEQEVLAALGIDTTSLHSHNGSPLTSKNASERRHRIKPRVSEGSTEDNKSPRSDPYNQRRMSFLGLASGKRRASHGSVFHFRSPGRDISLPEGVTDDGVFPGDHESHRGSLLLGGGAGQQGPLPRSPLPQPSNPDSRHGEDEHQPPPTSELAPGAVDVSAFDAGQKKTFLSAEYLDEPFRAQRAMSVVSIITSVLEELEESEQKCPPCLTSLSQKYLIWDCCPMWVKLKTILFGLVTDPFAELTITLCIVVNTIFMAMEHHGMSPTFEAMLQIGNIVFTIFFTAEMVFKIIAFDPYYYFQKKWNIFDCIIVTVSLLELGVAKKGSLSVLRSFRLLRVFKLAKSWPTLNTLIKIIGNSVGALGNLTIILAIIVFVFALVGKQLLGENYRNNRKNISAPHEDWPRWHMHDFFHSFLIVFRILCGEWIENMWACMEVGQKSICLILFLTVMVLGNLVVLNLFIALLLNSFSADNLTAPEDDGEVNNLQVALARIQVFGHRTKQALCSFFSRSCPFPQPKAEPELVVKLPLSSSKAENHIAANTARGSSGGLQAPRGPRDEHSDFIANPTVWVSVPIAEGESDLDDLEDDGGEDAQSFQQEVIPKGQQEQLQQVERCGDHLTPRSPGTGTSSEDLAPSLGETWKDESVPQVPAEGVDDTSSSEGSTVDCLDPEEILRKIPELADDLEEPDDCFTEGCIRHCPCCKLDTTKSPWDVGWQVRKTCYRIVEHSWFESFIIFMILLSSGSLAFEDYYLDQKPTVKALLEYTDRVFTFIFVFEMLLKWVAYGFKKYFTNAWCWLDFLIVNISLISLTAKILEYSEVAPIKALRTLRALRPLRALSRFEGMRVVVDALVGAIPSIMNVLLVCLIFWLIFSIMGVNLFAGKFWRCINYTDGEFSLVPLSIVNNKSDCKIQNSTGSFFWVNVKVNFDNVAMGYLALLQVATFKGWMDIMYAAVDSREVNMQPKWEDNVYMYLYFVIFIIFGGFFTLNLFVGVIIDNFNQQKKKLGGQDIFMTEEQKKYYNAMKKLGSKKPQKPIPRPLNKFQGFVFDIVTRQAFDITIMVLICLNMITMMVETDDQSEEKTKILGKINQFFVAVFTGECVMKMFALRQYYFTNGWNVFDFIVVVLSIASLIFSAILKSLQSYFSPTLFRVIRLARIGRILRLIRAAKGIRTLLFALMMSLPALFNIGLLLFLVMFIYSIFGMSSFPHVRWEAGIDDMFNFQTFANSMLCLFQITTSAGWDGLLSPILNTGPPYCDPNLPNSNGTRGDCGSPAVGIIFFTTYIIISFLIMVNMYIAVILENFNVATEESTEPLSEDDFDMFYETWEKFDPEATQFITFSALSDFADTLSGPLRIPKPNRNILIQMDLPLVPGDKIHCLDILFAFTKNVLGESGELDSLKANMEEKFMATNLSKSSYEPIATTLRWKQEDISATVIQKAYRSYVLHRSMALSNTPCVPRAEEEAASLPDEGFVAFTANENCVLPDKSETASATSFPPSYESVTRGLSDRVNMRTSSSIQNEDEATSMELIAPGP

SMILES: COc1cc(NC(=O)c2ccc(-c3ccc(Cl)cc3)o2)cc(OC)c1 [Example A-803467]
Pain relief effect compared with the model group (animal models of pain): exceeding 50% | Duration of efficacy versus lidocaine ([1]; local injection of plantar): lasted longer | Efficacy versus lidocaine ([1]; local injection of plantar): equivalent | Efficacy versus lidocaine ([1]; systemic administration): superior to lidocaine

inhibition at 0.1 µM (hNav1.8): 97.1% | solubility kinetic at 2 h [2]: 0.69 µM (≈ 0.354 µg/mL)
SMILES: NS(=O)(=O)c1cc(NC(=O)c2cc(Cl)c(C(F)(F)F)cc2N2CCCC(F)(F)CC2)ccn1 [Example 31, 5-chloro-2-(4,4-difluoroazepan-1-yl)-N-(2-sulfamoylpyridin-4-yl)-4-trifluoromethylbenzamide, reference compound]
Inhibition of mechanical hyperalgesia induced by postoperative pain model [3]: inhibited mechanical hyperalgesia

SMILES: COc1ccc(Cl)c(-c2ccc(NC(=O)c3ccnn3C)nc2N)c1 [PF-04531083]
Activity versus placebo (postoperative toothache): did not show better activity than placebo

SMILES: CNC(=O)c1ccc(-c2cc(Cl)cc(Cl)c2Cl)c(N)n1 [PF-01247324]
Pain relief (CFA and SNL models): significant pain relief
